Laboratory results from patent US8106055B2, “Substituted amide compounds” (Gruenenthal GmbH, priority 2007, dated 2012).

Legend:
[1] = target: T1, serotonin (5-HT) reuptake (Rattus norvegicus, UniProt P31652); experiment: Inhibition of serotonin (5HT) reuptake in synaptosomes from rat brain; format: biochemical; conditions: test concentration of 10 μM
T1 construct: synaptosomes are freshly isolated from areas of the rat brain; from tissue; host or cells: rat brain synaptosomes (P2 fraction)
Outline: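 Freshly isolated rat brain synaptosomes (P2 fraction) used for 5-HT reuptake. Test compound at 10 μM, activity given as % inhibition.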

[2] = target: T2, human bradykinin 1 receptor (B1R) (Homo sapiens, UniProt P46663); experiment: Functional investigation on the human bradykinin 1 receptor (B1R), Ca2+ FLIPR assay in CHO K1 hB1R cells; format: cell-based; conditions: B1R antagonism human; test substance 10 μM; Ca2+ FLIPR, CHO K1 hB1R cells
T2 construct: expressed in transfected cells; host or cells: CHO K1 cells
T2 sequence (P46663 1-353): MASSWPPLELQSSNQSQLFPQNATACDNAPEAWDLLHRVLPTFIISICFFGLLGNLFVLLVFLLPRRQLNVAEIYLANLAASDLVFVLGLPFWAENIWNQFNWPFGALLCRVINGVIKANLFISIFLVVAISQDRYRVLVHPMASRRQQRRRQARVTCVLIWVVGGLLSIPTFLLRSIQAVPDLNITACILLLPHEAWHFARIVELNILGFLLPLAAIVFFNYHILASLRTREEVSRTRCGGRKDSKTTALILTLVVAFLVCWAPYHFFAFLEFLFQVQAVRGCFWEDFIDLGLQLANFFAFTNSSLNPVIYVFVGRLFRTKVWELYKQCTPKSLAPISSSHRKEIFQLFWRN
Outline: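 Stably transfected CHO K1 cells loaded with Fluo-4; FLIPR Ca2+ fluorescence peak (ex 488/em 540 nm). Compound added first (agonism vs Lys-Des-Arg9-bradykinin ≥50 nM human, Des-Arg9-bradykinin 10 μM rat), then after 10-20 min agonist at EC80; antagonism as % inhibition, IC50 from concentration series, n=2-3, N≥2.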

T1 sequence (P31652 whole entry): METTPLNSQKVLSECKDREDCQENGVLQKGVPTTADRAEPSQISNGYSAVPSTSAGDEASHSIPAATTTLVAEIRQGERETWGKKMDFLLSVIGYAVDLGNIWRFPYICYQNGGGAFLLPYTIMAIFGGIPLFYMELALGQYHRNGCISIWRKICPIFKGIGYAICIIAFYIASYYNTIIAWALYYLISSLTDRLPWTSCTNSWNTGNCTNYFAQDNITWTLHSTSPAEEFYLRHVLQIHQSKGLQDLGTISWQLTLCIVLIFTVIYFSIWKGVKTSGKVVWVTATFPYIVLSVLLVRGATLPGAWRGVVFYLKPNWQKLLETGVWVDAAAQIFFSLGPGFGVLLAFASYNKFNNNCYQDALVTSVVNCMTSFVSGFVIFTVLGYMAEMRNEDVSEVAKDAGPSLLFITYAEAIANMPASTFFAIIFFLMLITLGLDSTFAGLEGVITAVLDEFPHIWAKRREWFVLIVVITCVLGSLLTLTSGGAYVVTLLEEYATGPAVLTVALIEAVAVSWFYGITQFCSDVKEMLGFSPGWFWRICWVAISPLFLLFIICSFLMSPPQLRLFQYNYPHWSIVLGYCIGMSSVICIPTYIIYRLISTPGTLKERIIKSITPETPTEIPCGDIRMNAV

SMILES	5-HT (inhibition of reuptake of serotonin, % inhibition) [1] [%]	B1R Ant. h [10 μM] % Inhibition [2] [%]
COc1cc(C)c(S(=O)(=O)N2CCC(OCC(=O)NCC3CCC(C(c4cccc(F)c4)N(C)C)CC3)CC2)c(C)c1C (centres unmarked) [Example 287]	96	1
CN(C)C(c1ccc(Cl)cc1)C1CCC(CNC(=O)COCCN(Cc2ccccc2)S(=O)(=O)c2ccccc2)CC1 (centres unmarked) [Example 343]	94	12
CN(C)C(c1cccs1)C1CCC(NC(=O)COCCN2CCN(S(=O)(=O)c3ccccc3)CC2)CC1 (centres unmarked) [Example 341]	85	−1
COc1cc(C)c(S(=O)(=O)N(C)CCOCC(=O)NCCC2CCC(C(c3ccc(Cl)cc3)N(C)C)CC2)c(C)c1C (centres unmarked) [Example 317]	88	103
